Assay: Solubility in solvent, CIPAC Method MT 181 at 20° C.
Assay type: physicochemical
From the text: When used, the solvent introduced into first reaction zone 20 may be any suitable type of solvent. The solvent may include a single solvent, or it may comprise a mixture of two or more solvents. In some embodiments, the solvent may be selected based on its solubility with one or more of the starting materials in lines 110, 112, and/or 114, and/or with the reaction product produced within first reaction zone 20. For example, at least one of the starting materials introduced into and/or the product withdrawn from first reaction zone 20 may have a solubility of at least about 20, at least about 25, at least about 30, at least about 35, at least about 40, at least about 45, at least about 50, at least about 55 weight percent in the solvent introduced into first reaction zone 20. In addition, or the alternative, at least one of the reagents introduced into and/or the reaction product withdrawn from first reaction zone 20 may have a solubility of not more than about 80, not more than about 75, not more than about 70, not more than about 65 weight percent in the solvent introduced into first reaction zone 20. Solubility is measured at 20° C. using CIPAC Method MT 181, unless otherwise noted.

solubility of 1-hydroxyethylformamide in formamide (in formamide): about 60 weight percent | solubility of 1-hydroxyethylformamide in isopropanol (in isopropanol, measured as described above (20° C., CIPAC Method MT 181)): 20.1 weight percent
SMILES: CC(O)NC=O (centres unmarked) [1-hydroxyethylformamide]
